Where a name gives a salt, the structure may show the parent alone.
Target: T1, Recombinant human IKKβ (residues 1-737) (Homo sapiens, UniProt O14920)
T1 construct: Recombinant human IKKβ (residues 1-737); GST (C); made in house
T1 sequence (O14920 1-737): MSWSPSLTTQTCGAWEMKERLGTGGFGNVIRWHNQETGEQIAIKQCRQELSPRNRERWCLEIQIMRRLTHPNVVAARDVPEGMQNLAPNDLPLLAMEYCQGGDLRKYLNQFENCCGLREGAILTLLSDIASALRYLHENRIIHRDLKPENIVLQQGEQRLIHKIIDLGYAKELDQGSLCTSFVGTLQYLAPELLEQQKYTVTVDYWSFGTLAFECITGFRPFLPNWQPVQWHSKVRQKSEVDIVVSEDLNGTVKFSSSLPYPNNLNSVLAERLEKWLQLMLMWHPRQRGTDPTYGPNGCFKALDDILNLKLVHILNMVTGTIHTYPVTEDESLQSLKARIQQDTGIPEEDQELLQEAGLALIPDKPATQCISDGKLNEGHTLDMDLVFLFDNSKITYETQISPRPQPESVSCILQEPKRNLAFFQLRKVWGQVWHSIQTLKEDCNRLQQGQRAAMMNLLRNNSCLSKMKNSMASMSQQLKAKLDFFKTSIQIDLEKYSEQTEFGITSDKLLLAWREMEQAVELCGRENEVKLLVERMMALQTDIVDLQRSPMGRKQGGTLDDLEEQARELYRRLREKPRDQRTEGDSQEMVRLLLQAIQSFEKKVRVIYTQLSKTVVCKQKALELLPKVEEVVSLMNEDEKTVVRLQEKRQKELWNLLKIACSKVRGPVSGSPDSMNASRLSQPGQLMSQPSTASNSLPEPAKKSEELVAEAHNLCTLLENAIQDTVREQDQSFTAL
Assay: IKK2 assay (TR-FRET)
Type: biochemical
Conditions: ATP 1 μM final, read-out: pIC50 against IKK2 (converted)
Protocol: Recombinant human IKKβ (residues 1-737) was expressed in baculovirus as a C-terminal GST-tagged fusion protein, and its activity was assessed using a time-resolved fluorescence resonance energy transfer (TR-FRET) assay. Briefly, IKK2 (0.5 nM-5 nM final) diluted in assay buffer (50 mM HEPES, 10 mM MgCl2, 1 mM CHAPS pH 7.4 with 1 mM DTT and 0.01% w/v BSA) was added to wells containing various concentrations of compound or DMSO vehicle (1.7% final). The reaction was initiated by the addition of GST-IB substrate (25 nM final)/ATP (1 μM final), in a total volume of 6 μl. The reaction was incubated for 15 minutes at room temperature, then terminated by the addition of 3 μl of detection reagent in buffer containing 50 mM EDTA (100 mM HEPES pH 7.4, 150 mM NaCl, 50 mM EDTA and 0.01% w/v BSA) containing antiphosphoserine-IB-32/36 monoclonal antibody 12C2 (Cell Signalling Technology, Beverly Mass., USA) labelled with W-1024 europium chelate (Wallac OY, Turku, Finland), and an APC-labelled anti-GST antibody (Prozyme, San Leandro, Calif., USA) was added and the reaction was further incubated for 60 minutes at room temperature. The degree of phosphorylation of GST-IB was measured using a BMG Rubystar plate reader (BMG Labtech, Aylesbury, UK) as a ratio of specific 665 nm energy transfer signal to reference europium 620 nm signal.

SMILES | IC50 [µM]
CCS(=O)(=O)N1CCC(c2c[nH]c3c(C(N)=O)cc(-c4ccc(CNCCC(C)(C)C)s4)cc23)CC1 [Example 199, 5-(5-{[(3,3-dimethylbutyl)amino]methyl}-2-thienyl)-3-[1-(ethylsulfonyl)-4-piperidinyl]-1H-indole-7-carboxamide] | ≤ 10
CCS(=O)(=O)N1CCC(c2c[nH]c3c(C(N)=O)cc(-c4cccc(CN)c4)cc23)CC1 [Example 14, 5-[3-(aminomethyl)phenyl]-3-[1-(ethylsulfonyl)-4-piperidinyl]-1H-indole-7-carboxamide] | ≤ 10
CCS(=O)(=O)N1CCC(c2c[nH]c3c(C(N)=O)cc(-c4cc(CN5CCCC5)c(OC)c(OC)c4)cc23)CC1 [Example 57, 5-[3,4-bis(methyloxy)-5-(1-pyrrolidinylmethyl)phenyl]-3-[1-(ethylsulfonyl)-4-piperidinyl]-1H-indole-7-carboxamide] | ≤ 10
CCS(=O)(=O)N1CCC(c2c[nH]c3c(C(N)=O)cc(-c4ccc(OC)c(CN(C)C)c4)cc23)CC1 [Example 263, 5-[3-[(dimethylamino)methyl]-4-(methyloxy)phenyl]-3-[1-(ethylsulfonyl)-4-piperidinyl]-1H-indole-7-carboxamide trifluoroacetate] | ≤ 10
CCS(=O)(=O)N1CCC(c2c[nH]c3c(C(N)=O)cc(-c4ccc(N5CCNCC5)nc4)cc23)CC1 [Example 135, 3-[1-(ethylsulfonyl)-4-piperidinyl]-5-[6-(1-piperazinyl)-3-pyridinyl]-1H-indole-7-carboxamide trifluoroacetate] | ≤ 10
CCNCc1ccc(-c2cc(C(N)=O)c3[nH]cc(C4CCN(S(=O)(=O)CC)CC4)c3c2)cc1 [Example 145, 5-{4-[(ethylamino)methyl]phenyl}-3-[1-(ethylsulfonyl)-4-piperidinyl]-1H-indole-7-carboxamide] | ≤ 10
CCS(=O)(=O)N1CCC(c2c[nH]c3c(C(N)=O)cc(-c4cc(CN(C)CCO)c(OC)c(OC)c4)cc23)CC1 [Example 56, 3-[1-(ethylsulfonyl)-4-piperidinyl]-5-[3-{[(2-hydroxyethyl)(methyl)amino]methyl}-4,5-bis(methyloxy)phenyl]-1H-indole-7-carboxamide] | ≤ 10
CCS(=O)(=O)N1CCC(c2c[nH]c3c(C(N)=O)cc(-c4cc(C#N)cc(CNCC(F)(F)F)c4)cc23)CC1 [Example 41, 5-(3-cyano-5-{[(2,2,2-trifluoroethyl)amino]methyl}phenyl)-3-[1-(ethylsulfonyl)-4-piperidinyl]-1H-indole-7-carboxamide trifluoroacetate] | ≤ 10
CCS(=O)(=O)N1CCC(c2c[nH]c3c(C(N)=O)cc(-c4ccc(OC)c(CNC(C)C)c4)cc23)CC1 [Example 265, 3-[1-(ethylsulfonyl)-4-piperidinyl]-5-[3-{[(1-methylethyl)amino]methyl}-4-(methyloxy)phenyl]-1H-indole-7-carboxamide trifluoroacetate] | ≤ 10
CCS(=O)(=O)N1CCC(c2c[nH]c3c(C(N)=O)cc(-c4cc(CNC(C)C)c(OC)c(OC)c4)cc23)CC1 [Example 53, 3-[1-(ethylsulfonyl)-4-piperidinyl]-5-[3-{[(1-methylethyl)amino]methyl}-4,5-bis(methyloxy)phenyl]-1H-indole-7-carboxamide] | ≤ 10
CCS(=O)(=O)N1CCC(c2c[nH]c3c(C(N)=O)cc(-c4cc(CN(C)C)c(OC)c(OC)c4)cc23)CC1 [Example 51, 5-[3-[(dimethylamino)methyl]-4,5-bis(methyloxy)phenyl]-3-[1-(ethylsulfonyl)-4-piperidinyl]-1H-indole-7-carboxamide] | ≤ 10

Other lines, results leading:

IC50 [µM] | SMILES
≤ 10 | CCNC(C)c1cccc(-c2cc(C(N)=O)c3[nH]cc(C4CCN(S(=O)(=O)CC)CC4)c3c2)c1 (stereo not drawn) [Example 280, 5-{3-[1-(ethylamino)ethyl]phenyl}-3-[1-(ethylsulfonyl)-4-piperidinyl]-1H-indole-7-carboxamide trifluoroacetate]
≤ 10 | CCS(=O)(=O)N1CCC(c2c[nH]c3c(C(N)=O)cc(-c4cnn(CCN(C)CCO)c4)cc23)CC1 [Example 268, 3-[1-(ethylsulfonyl)-4-piperidinyl]-5-(1-{2-[(2-hydroxyethyl)(methyl)amino]ethyl}-1H-pyrazol-4-yl)-1H-indole-7-carboxamide]
≤ 10 | CCS(=O)(=O)N1CCC(c2c[nH]c3c(C(N)=O)cc(-c4csc(CN(C)C[C@H]5CCCO5)c4)cc23)CC1 [Example 414, 3-[1-(ethylsulfonyl)-4-piperidinyl]-5-[5-({methyl[(2R)-tetrahydro-2-furanylmethyl]amino}methyl)-3-thienyl]-1H-indole-7-carboxamide trifluoroacetate]
≤ 10 | CCC(C)N1Cc2ccc(-c3cc(C(N)=O)c4[nH]cc(C5CCN(S(=O)(=O)CC)CC5)c4c3)cc2C1 (stereo not drawn) [Example 422, 3-[1-(ethylsulfonyl)-4-piperidinyl]-5-[2-(1-methylpropyl)-2,3-dihydro-1H-isoindol-5-yl]-1H-indole-7-carboxamide]
≤ 10 | CCS(=O)(=O)N1CCC(c2c[nH]c3c(C(N)=O)cc(-c4csc(CN(C)CCOCCO)c4)cc23)CC1 [Example 415, 3-[1-(ethylsulfonyl)-4-piperidinyl]-5-(5-{[{2-[(2-hydroxyethyl)oxy]ethyl}(methyl)amino]methyl}-3-thienyl)-1H-indole-7-carboxamide trifluoroacetate]
≤ 10 | CCS(=O)(=O)N1CCC(c2c[nH]c3c(C(N)=O)cc(-c4cccc(CNS(=O)(=O)c5csc6ccccc56)c4)cc23)CC1 [Example 382, 5-(3-{[(1-benzothien-3-ylsulfonyl)amino]methyl}phenyl)-3-[1-(ethylsulfonyl)-4-piperidinyl]-1H-indole-7-carboxamide]
≤ 10 | CCS(=O)(=O)N1CCC(c2c[nH]c3c(C(N)=O)cc(-c4ccc5c(c4)CN(C4CCCC4)C5)cc23)CC1 [Example 424, 5-(2-cyclopentyl-2,3-dihydro-1H-isoindol-5-yl)-3-[1-(ethylsulfonyl)-4-piperidinyl]-1H-indole-7-carboxamide]
≤ 10 | CC(C)S(=O)(=O)N1CCC(c2c[nH]c3c(C(N)=O)cc(-c4csc(CN(C)CC(N)=O)c4)cc23)CC1 [Example 398, 5-(5-{[(2-amino-2-oxoethyl)(methyl)amino]methyl}-3-thienyl)-3-{1-[(1-methylethyl)sulfonyl]-4-piperidinyl}-1H-indole-7-carboxamide]
≤ 10 | CCS(=O)(=O)N1CCC(c2c[nH]c3c(C(N)=O)cc(-c4cccc(CNOC)c4)cc23)CC1 [Example 391, 3-[1-(ethylsulfonyl)-4-piperidinyl]-5-(3-{[(methyloxy)amino]methyl}phenyl)-1H-indole-7-carboxamide]
≤ 10 | CCS(=O)(=O)N1CCC(c2c[nH]c3c(C(N)=O)cc(-c4ccc(OC)c(CNC)c4)cc23)CC1 [Example 266, 3-[1-(ethylsulfonyl)-4-piperidinyl]-5-[3-[(methylamino)methyl]-4-(methyloxy)phenyl]-1H-indole-7-carboxamide trifluoroacetate]
≤ 10 | CCS(=O)(=O)N1CCC(c2c[nH]c3c(C(N)=O)cc(-c4cccc(CNS(=O)(=O)c5ccc(F)c(F)c5)c4)cc23)CC1 [Example 384, 5-[3-({[(3,4-difluorophenyl)sulfonyl]amino}methyl)phenyl]-3-[1-(ethylsulfonyl)-4-piperidinyl]-1H-indole-7-carboxamide]
≤ 10 | CCS(=O)(=O)N1CCC(c2c[nH]c3c(C(N)=O)cc(-c4ccc5c(c4)CN(C(C)C(C)C)C5)cc23)CC1 (stereo not drawn) [Example 421, 5-[2-(1,2-dimethylpropyl)-2,3-dihydro-1H-isoindol-5-yl]-3-[1-(ethylsulfonyl)-4-piperidinyl]-1H-indole-7-carboxamide]
≤ 10 | CCS(=O)(=O)N1CCC(c2c[nH]c3c(C(N)=O)cc(-c4csc(CN5CCCC(C(F)(F)F)C5)c4)cc23)CC1 (stereo not drawn) [Example 407, 3-[1-(ethylsulfonyl)-4-piperidinyl]-5-(5-{[3-(trifluoromethyl)-1-piperidinyl]methyl}-3-thienyl)-1H-indole-7-carboxamide trifluoroacetate]
